Assay results published in US9481676B2, “Azepino[4,5-B]indoles and methods of use” (Medivation Technologies, Inc., priority 2008, dated 2016).

What was measured:
[1] = target: T1, human recombinant histamine H2 receptor (Homo sapiens, UniProt P25021); experiment: Histamine H2 radioligand binding ([125I]Aminopotentidine); conditions: compound at 1 μM; read-out: Histamine Binding (1 μM) H2, percent inhibition of specific binding
T1 construct: expressed in transfected cells; host or cells: CHO-K1 cells
T1 sequence (P25021 whole entry): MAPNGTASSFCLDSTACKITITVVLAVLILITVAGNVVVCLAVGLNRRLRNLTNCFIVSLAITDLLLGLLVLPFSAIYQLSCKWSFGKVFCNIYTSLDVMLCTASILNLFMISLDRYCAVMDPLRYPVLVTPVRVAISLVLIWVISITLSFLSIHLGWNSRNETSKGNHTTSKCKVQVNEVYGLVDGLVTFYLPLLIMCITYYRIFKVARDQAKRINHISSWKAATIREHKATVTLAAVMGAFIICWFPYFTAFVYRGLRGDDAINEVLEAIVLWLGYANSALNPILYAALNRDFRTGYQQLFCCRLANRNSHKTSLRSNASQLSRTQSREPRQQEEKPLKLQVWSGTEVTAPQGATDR
Method in brief: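 Membranes from CHO-K1 cells expressing recombinant human H2 receptor, in 50 mM phosphate buffer pH 7.4, incubated with 0.1 nM [125I]aminopotentidine for 120 min at 25 °C; nonspecific binding defined with 3 μM tiotidine.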

[2] = target: T2, human recombinant serotonin (5-Hydroxytryptamine) 5-HT2A receptor (Homo sapiens, UniProt P28223); experiment: Serotonin 5-HT2A radioligand binding ([3H]Ketanserin); conditions: compound at 1 μM; read-out: Serotonin (1 μM) 5-HT2A, percent inhibition of specific binding
T2 construct: expressed in transfected cells; host or cells: CHO-K1 cells
T2 sequence (P28223 whole entry): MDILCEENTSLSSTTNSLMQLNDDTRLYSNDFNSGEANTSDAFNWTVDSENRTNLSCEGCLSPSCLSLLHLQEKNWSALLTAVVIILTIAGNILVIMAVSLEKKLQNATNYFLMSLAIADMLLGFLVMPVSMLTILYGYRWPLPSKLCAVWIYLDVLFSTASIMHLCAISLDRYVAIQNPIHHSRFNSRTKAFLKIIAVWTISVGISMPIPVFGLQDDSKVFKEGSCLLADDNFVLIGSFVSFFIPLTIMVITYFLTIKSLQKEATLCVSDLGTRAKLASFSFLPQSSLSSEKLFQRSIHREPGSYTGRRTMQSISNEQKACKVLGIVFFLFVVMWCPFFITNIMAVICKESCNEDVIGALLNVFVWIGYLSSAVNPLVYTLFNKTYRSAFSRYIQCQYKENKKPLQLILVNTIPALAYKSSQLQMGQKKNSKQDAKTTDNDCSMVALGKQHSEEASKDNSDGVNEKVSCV
Method in brief: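 Percent inhibition of specific [3H]ketanserin (0.5 nM) binding, filtration read-out, with compounds at ≤1 μM (1% DMSO vehicle). Receptor source: recombinant human 5-HT2A in CHO-K1 cells, 50 mM Tris-HCl pH 7.4, 60 min, 25 °C; 1 μM mianserin gives nonspecific binding.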

[3] = target: T3, human recombinant serotonin (5-Hydroxytryptamine) 5-HT6 receptor (Homo sapiens, UniProt P50406); experiment: Serotonin 5-HT6 radioligand binding ([3H]LSD); conditions: compound at 1 μM; read-out: Serotonin (1 μM) 5-HT6, percent inhibition of specific binding
T3 construct: expressed in transfected cells; host or cells: human HeLa cells
T3 sequence (P50406 whole entry): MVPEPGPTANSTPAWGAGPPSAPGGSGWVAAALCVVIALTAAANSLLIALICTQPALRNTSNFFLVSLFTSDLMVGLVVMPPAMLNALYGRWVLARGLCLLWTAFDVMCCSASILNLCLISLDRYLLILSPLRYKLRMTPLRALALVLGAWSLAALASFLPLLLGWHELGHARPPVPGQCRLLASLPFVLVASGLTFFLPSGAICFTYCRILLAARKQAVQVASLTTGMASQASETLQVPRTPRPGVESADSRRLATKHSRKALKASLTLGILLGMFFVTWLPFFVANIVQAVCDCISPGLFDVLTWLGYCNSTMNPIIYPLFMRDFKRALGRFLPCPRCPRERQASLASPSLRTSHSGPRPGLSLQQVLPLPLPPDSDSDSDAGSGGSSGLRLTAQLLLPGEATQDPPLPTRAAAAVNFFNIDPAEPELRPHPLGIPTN
Method in brief: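 Human recombinant 5-HT6 receptor from HeLa cells incubated with 1.5 nM [3H]LSD for 120 min at 37° C in 50 mM Tris-HCl pH 7.4, 150 mM NaCl, 2 mM ascorbic acid, 0.001% BSA. Nonspecific binding defined with 5 μM serotonin; bound ligand counted after filtration.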

[4] = target: T4, human recombinant adrenergic α1D receptor (Homo sapiens, UniProt P25100); experiment: Adrenergic alpha1D radioligand binding ([3H]Prozosin); conditions: compound at 1 μM; read-out: Adrenergic (1 μM) α1D, percent inhibition of specific binding
T4 construct: expressed in transfected cells; host or cells: HEK-293 cells
T4 sequence (P25100 1-572): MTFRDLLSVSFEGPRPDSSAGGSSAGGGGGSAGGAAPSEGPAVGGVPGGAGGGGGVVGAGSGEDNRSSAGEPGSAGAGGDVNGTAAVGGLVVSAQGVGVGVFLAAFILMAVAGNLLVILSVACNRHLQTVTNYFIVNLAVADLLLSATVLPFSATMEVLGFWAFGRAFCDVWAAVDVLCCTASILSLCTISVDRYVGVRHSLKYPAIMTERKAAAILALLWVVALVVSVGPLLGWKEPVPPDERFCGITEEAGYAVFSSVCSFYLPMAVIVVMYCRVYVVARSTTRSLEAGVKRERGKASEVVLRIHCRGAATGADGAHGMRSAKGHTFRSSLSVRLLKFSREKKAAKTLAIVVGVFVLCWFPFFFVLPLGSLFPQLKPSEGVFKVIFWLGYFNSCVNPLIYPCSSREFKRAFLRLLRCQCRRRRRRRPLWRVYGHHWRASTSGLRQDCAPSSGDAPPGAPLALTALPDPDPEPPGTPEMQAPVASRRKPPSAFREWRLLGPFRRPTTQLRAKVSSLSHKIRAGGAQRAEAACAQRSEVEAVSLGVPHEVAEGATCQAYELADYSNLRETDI
Method in brief: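 Membranes from HEK-293 cells expressing the human receptor in 50 mM Tris-HCl pH 7.4 were incubated 60 min at 25 °C with 0.6 nM [3H]prazosin. Nonspecific binding was defined with 10 μM phentolamine, and bound ligand measured by filtration.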

Cc1ccc2c(c1)c1c(n2CC(=O)OC2CCCC2)CCN(C)CC1 [Compound No. 55, Cyclopentyl-2-(2,3,4,5-tetrahydro-3,9-dimethylazepino[4,5-b]indol-6(1H)-yl)acetate]
inhibition at 1 µM [1]: -3%
inhibition at 1 µM [2]: -2%
inhibition at 1 µM [3]: 4%
inhibition at 1 µM [4]: 8%

CN1CCc2c(n(CCc3ccccc3)c3ccc(Cl)cc23)CC1 [Compound No. 56, 9-chloro-1,2,3,4,5,6-hexahydro-3-methyl-6-phenethylazepino[4,5-b]indole]
inhibition at 1 µM [1]: 74%
inhibition at 1 µM [2]: 97%
inhibition at 1 µM [3]: 104%
inhibition at 1 µM [4]: 83%

CN1CCc2c(n(CC(=O)N3CCCCC3)c3ccc(Cl)cc23)CC1 [Compound No. 57, 2-(9-chloro-2,3,4,5-tetrahydro-3-methylazepino[4,5-b]indol-6(1H)-yl)-1-(piperidin-1-yl)ethanone]
inhibition at 1 µM [1]: 1%
inhibition at 1 µM [2]: 10%
inhibition at 1 µM [3]: -1%
inhibition at 1 µM [4]: -7%

CN1CCc2c(n(CC(O)c3ccc(F)c(F)c3)c3ccc(Cl)cc23)CC1 (stereo not drawn) [Compound No. 58, 2-(9-chloro-2,3,4,5-tetrahydro-3-methylazepino[4,5-b]indol-6(1H)-yl)-1-(3,4-difluorophenyl)ethanol]
inhibition at 1 µM [1]: 91%
inhibition at 1 µM [2]: 100%
inhibition at 1 µM [3]: 99%
inhibition at 1 µM [4]: 88%

Cc1ccc2c(c1)c1c(n2CC(O)c2ccc(F)cc2F)CCN(C)CC1 (stereo not drawn) [Compound No. 59, 1-(2,4-difluorophenyl)-2-(2,3,4,5-tetrahydro-3,9-dimethylazepino[4,5-b]indol-6(1H)-yl)ethanol]
inhibition at 1 µM [1]: 37%
inhibition at 1 µM [2]: 93%
inhibition at 1 µM [3]: 97%
inhibition at 1 µM [4]: 73%

CN1CCc2c(n(CC(=O)N3CCOCC3)c3ccc(Cl)cc23)CC1 [Compound No. 60, 2-(9-chloro-2,3,4,5-tetrahydro-3-methylazepino[4,5-b]indol-6(1H)-yl)-1-morpholinoethanone]
inhibition at 1 µM [1]: 6%
inhibition at 1 µM [2]: -7%
inhibition at 1 µM [3]: 3%
inhibition at 1 µM [4]: -1%

CN1CCc2c(n(CCc3ccccc3F)c3ccc(Cl)cc23)CC1 [Compound No. 61, 6-(2-fluorophenethyl)-9-chloro-1,2,3,4,5,6-hexahydro-3-methylazepino[4,5-b]indole]
inhibition at 1 µM [1]: 89%
inhibition at 1 µM [2]: 43%
inhibition at 1 µM [3]: 5%
inhibition at 1 µM [4]: -5%

Cc1ccc2c(c1)c1c(n2CCc2ccccc2)CCN(C)CC1 [Compound No. 62, 1,2,3,4,5,6-hexahydro-3,9-dimethyl-6-phenethylazepino[4,5-b]indole]
inhibition at 1 µM [1]: 79%
inhibition at 1 µM [2]: 12%
inhibition at 1 µM [3]: -4%
inhibition at 1 µM [4]: 12%

Cc1ccc2c(c1)c1c(n2CCc2ccccc2F)CCN(C)CC1 [Compound No. 63, 6-(2-fluorophenethyl)-1,2,3,4,5,6-hexahydro-3,9-dimethylazepino[4,5-b]indole]
inhibition at 1 µM [1]: 83%
inhibition at 1 µM [2]: 91%
inhibition at 1 µM [3]: 101%
inhibition at 1 µM [4]: 77%

COc1ccc(C(O)Cn2c3c(c4cc(Cl)ccc42)CCN(C)CC3)cc1F (stereo not drawn) [Compound No. 67, 2-(9-chloro-2,3,4,5-tetrahydro-3-methylazepino[4,5-b]indol-6(1H)-yl)-1-(3-fluoro-4-methoxyphenyl) ethanol]
inhibition at 1 µM [1]: 72%
inhibition at 1 µM [2]: 100%
inhibition at 1 µM [3]: 86%
inhibition at 1 µM [4]: 90%

COc1ccc(C(O)Cn2c3c(c4cc(C)ccc42)CCN(C)CC3)cc1F (stereo not drawn) [Compound No. 68, 1-(3-fluoro-4-methoxyphenyl)-2-(2,3,4,5-tetrahydro-3,9-dimethylazepino[4,5-b]indol-6(1H)-yl)ethanol]
inhibition at 1 µM [1]: 69%
inhibition at 1 µM [2]: 99%
inhibition at 1 µM [3]: 87%
inhibition at 1 µM [4]: 93%

Cc1ccc2c(c1)c1c(n2CCc2ccccc2Cl)CCN(C)CC1 [Compound No. 69, 6-(2-chlorophenethyl)-1,2,3,4,5,6-hexahydro-3,9-dimethylazepino[4,5-b]indole]
inhibition at 1 µM [1]: -9%
inhibition at 1 µM [2]: 52%
inhibition at 1 µM [3]: -4%
inhibition at 1 µM [4]: -5%

CN1CCc2c(n(CC(=O)N3CCNCC3)c3ccc(Cl)cc23)CC1 [Compound No. 72, 2-(9-chloro-2,3,4,5-tetrahydro-3-methylazepino[4,5-b]indol-6(1H)-yl)-1-(piperazin-1-yl)ethanone]
inhibition at 1 µM [1]: 0%
inhibition at 1 µM [2]: 23%
inhibition at 1 µM [3]: 39%
inhibition at 1 µM [4]: 17%

CN1CCc2c(n(CC(=O)Nc3ccccc3)c3ccc(Cl)cc23)CC1 [Compound No. 73, 2-(9-chloro-2,3,4,5-tetrahydro-3-methylazepino[4,5-b]indol-6(1H)-yl)-N-phenylacetamide]
inhibition at 1 µM [1]: -5%
inhibition at 1 µM [2]: 18%
inhibition at 1 µM [3]: 0%
inhibition at 1 µM [4]: 1%

CN1CCc2c(n(CC(=O)N(C)C3CCCCC3)c3ccc(Cl)cc23)CC1 [Compound No. 74, 2-(9-chloro-2,3,4,5-tetrahydro-3-methylazepino[4,5-b]indol-6(1H)-yl)-N-cyclohexyl-N-methylacetamide]
inhibition at 1 µM [1]: 9%
inhibition at 1 µM [2]: 27%
inhibition at 1 µM [3]: -4%
inhibition at 1 µM [4]: 17%

CN1CCc2c(n(CC(=O)OCc3ccccc3)c3ccc(Cl)cc23)CC1 [Compound No. 75, Benzyl-2-(9-chloro-2,3,4,5-tetrahydro-3-methylazepino[4,5-b]indol-6(1H)-yl)acetate]
inhibition at 1 µM [1]: -4%
inhibition at 1 µM [2]: 34%
inhibition at 1 µM [3]: -2%
inhibition at 1 µM [4]: 7%

Cc1ccc2c(c1)c1c(n2/C=C/c2ccccc2)CCN(C)CC1 [Compound No. 229, (E)-3,9-dimethyl-6-styryl-1,2,3,4,5,6-hexahydroazepino[4,5-b]indole]
inhibition at 1 µM [1]: 94%
inhibition at 1 µM [2]: 100%
inhibition at 1 µM [3]: 102%
inhibition at 1 µM [4]: 97%

COc1ccc(/C=C/n2c3c(c4cc(C)ccc42)CCN(C)CC3)c(F)c1 [Compound No. 230, (E)-6-(2-fluoro-4-methoxystyryl)-3,9-dimethyl-1,2,3,4,5,6-hexahydroazepino[4,5-b]indole]
inhibition at 1 µM [1]: 89%
inhibition at 1 µM [2]: 97%
inhibition at 1 µM [3]: 100%
inhibition at 1 µM [4]: 97%

Cc1ccc2c(c1)c1c(n2CC(=O)N(C)C2CCCCC2)CCN(C)CC1 [Compound No. 232, N-cyclohexyl-2-(3,9-dimethyl-2,3,4,5-tetrahydroazepino[4,5-b]indol-6(1H)-yl)-N-methylacetamide]
inhibition at 1 µM [1]: 22%
inhibition at 1 µM [2]: 70%
inhibition at 1 µM [3]: 20%
inhibition at 1 µM [4]: 29%

Cc1ccc2c(c1)c1c(n2/C=C/c2ccccc2F)CCN(C)CC1 [Compound No. 233, (E)-6-(2-fluorostyryl)-3,9-dimethyl-1,2,3,4,5,6-hexahydroazepino[4,5-b]indole]
inhibition at 1 µM [1]: 94%
inhibition at 1 µM [2]: 102%
inhibition at 1 µM [3]: 103%
inhibition at 1 µM [4]: 96%

CN1CCc2c(n(/C=C/c3ccc(F)cc3)c3ccc(Cl)cc23)CC1 [Compound No. 234, (E)-9-chloro-6-(4-fluorostyryl)-3-methyl-1,2,3,4,5,6-hexahydroazepino[4,5-b]indole]
inhibition at 1 µM [1]: 92%
inhibition at 1 µM [2]: 101%
inhibition at 1 µM [3]: 103%
inhibition at 1 µM [4]: 97%
